1 compound from paper PMC7912796, “Design, Synthesis, Anticancer Activity, and Solid Lipid Nanoparticle Formulation of Indole- and Benzimidazole-Based Compounds as Pro-Apoptotic Agents Targeting Bcl-2 Protein” (Pharmaceuticals, 2021) can be followed below.

Broadly, the IC50 is the concentration at which inhibition is half-maximal.

In experiment [1] the test system is MDA-MB-231/breast cancer cell line. Description: Cell cycle analysis, propidium iodide flow cytometry. It is filed as cell-based, human. Particulars: 13 µM, 48 h. The source says:
Using flow cytometry, apoptosis rate analysis was proceeded through staining the cell surface-translocating phosphatidylserine with Annexin-V fluorescent conjugate, the calcium-dependent phospholipid binding protein [32]. However, cell cycle analysis was achieved using propidium iodine fluorescent dye to stoichiometrically stain cell DNA contents allowing quantitation and identification of all cell phase rates; G0-G1, S, G2/M, and pre-G1 [33, 34]. […] For identifying the mode of cell death promoted by 8b within MDA-MB-231/breast cancer cells, apoptosis rate analysis was performed following 48 h exposure time. […] Moreover, the average proportion of Annexin-V stained positive cells (total apoptotic cells) elevated from 1.72% within untreated cells to 18.93% in treated ones (p < 0.001). […] The above provided findings are supported by the previous cell cycle analysis confirming the potentiality of 8b as promising anticancer agent.
Apoptotic assay and cell cycle analysis were proceeded according to previous literatures. […] Following incubation, MDA-MB-231 cells were trypsinized, harvested, and fixed according to information cited within Annexin® V-FITC Detection Kit (Cat.#: K101-25, BioVision^TM, Milpitas, CA, USA), for quantifying cell’s DNA contents being treated with 8b relative to control sample using propidium iodide stain (Cat.#: ab139418; Abcam^TM, Cambridge, MA, USA). […]
A general note: In flow cytometry, cells or beads pass a laser one at a time.

In experiment [2] the test system is Bax/Bcl-2 gene expression ratio. Description: RT-PCR Bax/Bcl-2 gene expression ratio. It is filed as cell-based, human. As to conditions: 13 μM, 48 h, MDA-MB-231; control 1. On the procedure: Dissection of the compound’s proapoptotic activity was proceeded through gene expression analysis for key genes, controlling apoptosis pathway, as well as protein level determination. Following 8b treatment for 48 h, alterations within MDA-MB-231/breast cancer cell expression of Bcl-2, Bax, caspase-3, -8, and -9 genes, as well as cytochrome c and class-III β-tubulin proteins levels were determined using real-time polymerase chain reaction (RT-PCR) or ELISA technique, respectively. Typically, Bcl-2, Bax, caspases, and cytochrome c proteins contributes within the regulation of apoptotic signaling. Acting as apoptotic activator (Bax) or inhibitor (Bcl-2), the Bcl-2 family proteins play their significant role in apoptosis. The caspases family are cysteine proteases being classified as either executioners; caspase-3, -6, or -7 or initiators; caspase-8 and -9 [36]. […]
Quantitative Real-time PCR was operated on Rotor-Gene Q® PCR system as a reader (Cat.#: 204774; Qiagen^TM, Milan, Italy) via GenElute® RNA extraction/SIGMA PCR kit (Cat.#: REI10; Qiagen^TM, Milan, Italy)^86. […] RNA purity was assessed via Nanodrop® 2000/2000c UV-Vis spectrophotometer (Thermo-Scientific^TM, Bilbao, Spain). […] Obtained results were expressed within Cycle threshold (Ct) values, while relative quantitation of each measured gene was assessed based on ΔΔCt calculations as represented in Table 5 [79].

The subject of experiment [3] is MDCK/kidney non-cancerous cells. Description: MTT-cell proliferation assay on non-cancerous cell line. Format: cell-based. Particulars: 48 h drug exposure, mean ± SEM. The source says:
The potential anti-cancer activity of all fourteen final synthesized compounds was investigated through MTT cytotoxic assay against two different human solid cancerous cell lines; A549/lung and MDA-MB-231/breast adenocarcinoma. The adopted cell-proliferation assay assessed % cell viability in relation to the reducing activity of cellular NADPH-dependent cellular oxidoreductases on tetrazolium dye, MTT [2,5-diphenyl-3-(4,5-dimethylthiazol-2-yl)tetrazolium bromide salt], for furnishing an easily quantified insoluble chromogenic formazan. For each drug concentration, 0.1, 1, 10, and 100 μM, the % cell-viability was estimated relative to negative control following a complete 48 h of drug treatment. Both 5-fluorouracil (5-FU) and doxorubicin (DOX) were set as positive index comparators. Moreover, the safety profile of the synthesized compounds was further investigated by examining their in-vitro cytotoxicity on non-cancerous cell line; MDCK/kidney cells.
Evaluating the cytotoxicity of tested compounds on two cancer cell lines (A549/lung and MDA-MB-231/breast adenocarcinoma) and non-cancerous (MDCK/kidney cells) was performed while adopting the formerly described method with small alterations. Cancer cell lines were propagated within Dulbecco’s Modified Eagle Medium-High Glucose (Cat.#: P0103; DMEM_High Glucose with Na.Pyruvate and stable Glutamine, Biowest^TM, Nuaillé, France), while MDA-MB-231 cells were propagated within RPMI-1640 L-Glutamine medium (Cat.#:12-604F; Lonza-Verviers SPRL^TM, Verviers, Belgium). The culturing media were supplemented via 1% antibiotic-antimycotic 100X (Cat.#: L0010; Biowest^TM, Nuaillé, France) and 10% fetal bovine serum (FBS) (Cat.#: EU-000-H; Seralab^TM, West Sussex, UK). Cells were seeded as triplicates within 96-well plate, at 1 × 10^4 cells per well density, after being counted and viability checked using the trypan blue staining solution (Cat.# ab233465; Abcam^TM, Cambridge, MA, USA). Seeded cells were permitted to adhere for 24 h under 5% CO2 and at 37 °C incubating conditions. The assigned compounds were dissolved in 500 µL DMSO affording the stock solution (100 mM) being ready for more diluting within the whole medium to obtain the compound’s final concentrations; 0.1, 1, 10, 100 µM for cell treatments. […] Following 24 h compound-cell treatment, the medium was substituted by fresh one and cells were permitted to develop for 48 h. At four hours prior the end of incubation, 10 μL MTT Sigma-Aldrich^TM (5 mg/mL in PBS 1X without magnesium and calcium; Cat.# 17-516F, Lonza-Verviers^TM, Basel, Switzerland) were added to all wells. Following the complete 48 h incubation, 100 μL DMSO was all added to all wells where they were subsequently centrifuged at 4000 rpm for 5 min allowing the formazan crystals of formazan to precipitate. Color was established and intensities were recorded at 490 nm using Synergy-Neo2® Hybrid MultiMode Plate Reader (BioTek^TM, Winooski, VT, USA), while subtracting the multi-well plates background absorbance at 690 nm. Percentage cell viability was estimated using the subsequent formula: % cell-viability = (average absorbance of treated wells/average absorbance of controls) × 100.
(In general: Tetrazolium assays rely on reduction of a dye to a coloured formazan, in cell work by metabolically active cells.)

In the case of `CCCc1ccc(-c2nn(-c3ccccc3)cc2C=NNC(=O)c2cc3ccccc3[nH]2)cc1` [Compound 8b, N′-((1-phenyl-3-(4-propylphenyl)-1H-pyrazol-4-yl)methylene)-1H-indole-2-carbohydrazide], the “cell population at pre-G1 stage” value in experiment [1] is on record as 1.72%. Further, the “cell population at G2/M stage” value in experiment [1] (untreated 6.15%) was 25.32%. Besides, in experiment [2], the Bax/Bcl expression ratio is on record as 21.88. The IC50 stood at 92.75 ± 0.43 µM in experiment [3] and 92 µM in experiment [3] (Canis lupus familiaris, MDCK, 48 h).
